Experimental data taken from the NIST ThermoML archive (doi:10.1016/j.jct.2013.01.005).
Numbers after ± are expanded uncertainties.

Test: activity coefficient (dimensionless); of the first substance listed, at infinite dilution; xn = mol fraction of the nth substance listed
Conditions: 101 kPa, Liquid, Chromatography, x1 = 0

Compound	activity coefficient (308.15 K)	activity coefficient (318.15 K)	activity coefficient (328.15 K)	activity coefficient (338.15 K)	activity coefficient (348.15 K)	activity coefficient (358.15 K)
c1ccsc1 [thiophene] + CCCCCC[N+]1(C)CCCCC1.O=S(=O)([N-]S(=O)(=O)C(F)(F)F)C(F)(F)F	0.614 ± 0.043	0.627 ± 0.043	0.643 ± 0.044	0.655 ± 0.045	0.664 ± 0.045	0.675 ± 0.046
C#CCCC [1-pentyne] + CCCCCC[N+]1(C)CCCCC1.O=S(=O)([N-]S(=O)(=O)C(F)(F)F)C(F)(F)F	1.42 ± 0.09	1.45 ± 0.1	1.48 ± 0.1	1.5 ± 0.1	1.53 ± 0.1	1.54 ± 0.1
CC1CCCCC1 [methylcyclohexane] + CCCCC[N+]1(C)CCCCC1.O=S(=O)([N-]S(=O)(=O)C(F)(F)F)C(F)(F)F	7.8 ± 0.53	7.49 ± 0.51	7.16 ± 0.49	6.87 ± 0.47	6.64 ± 0.45	6.42 ± 0.44
CCCCCCCC [octane] + CCCCC[N+]1(C)CCCCC1.O=S(=O)([N-]S(=O)(=O)C(F)(F)F)C(F)(F)F	18.2 ± 1.2	16.9 ± 1.2	15.9 ± 1.1	15.1 ± 1	14.4 ± 1	13.7 ± 0.9
CCCCO [butan-1-ol] + CCCCC[N+]1(C)CCCCC1.O=S(=O)([N-]S(=O)(=O)C(F)(F)F)C(F)(F)F	2.3 ± 0.16	2.16 ± 0.15	1.98 ± 0.13	1.82 ± 0.12	1.71 ± 0.11	1.57 ± 0.1
CCCCCCCCCC [decane] + CCCCCC[N+]1(C)CCCCC1.O=S(=O)([N-]S(=O)(=O)C(F)(F)F)C(F)(F)F	23.5 ± 1.6	22.2 ± 1.5	21.1 ± 1.4	20 ± 1.4	19.1 ± 1.3	18.3 ± 1.3
C=CCCCCCCCC [1-decene] + CCCCC[N+]1(C)CCCCC1.O=S(=O)([N-]S(=O)(=O)C(F)(F)F)C(F)(F)F	17.1 ± 1.2	16.5 ± 1.1	15.9 ± 1.1	15.5 ± 1.1	15.3 ± 1	14.6 ± 1
CCCC(C)=O [pentan-2-one] + CCCCCC[N+]1(C)CCCCC1.O=S(=O)([N-]S(=O)(=O)C(F)(F)F)C(F)(F)F	0.573 ± 0.041	0.581 ± 0.041	0.596 ± 0.042	0.613 ± 0.043	0.632 ± 0.044	0.646 ± 0.044
C1CCCCCCC1 [cyclooctane] + CCCCC[N+]1(C)CCCCC1.O=S(=O)([N-]S(=O)(=O)C(F)(F)F)C(F)(F)F	10.1 ± 0.7	9.58 ± 0.65	9.06 ± 0.62	8.6 ± 0.59	8.24 ± 0.56	7.8 ± 0.53
C1CCOC1 [tetrahydrofuran] + CCCCC[N+]1(C)CCCCC1.O=S(=O)([N-]S(=O)(=O)C(F)(F)F)C(F)(F)F	0.617 ± 0.043	0.627 ± 0.043	0.641 ± 0.044	0.653 ± 0.045	0.667 ± 0.045	0.682 ± 0.046
CCC(C)(C)OC [2-methoxy-2-methylbutane] + CCCCCC[N+]1(C)CCCCC1.O=S(=O)([N-]S(=O)(=O)C(F)(F)F)C(F)(F)F	2.11 ± 0.14	2.14 ± 0.15	2.18 ± 0.15	2.2 ± 0.15	2.22 ± 0.15	2.25 ± 0.15
C#CCCCCC [1-heptyne] + CCCCCC[N+]1(C)CCCCC1.O=S(=O)([N-]S(=O)(=O)C(F)(F)F)C(F)(F)F	2.39 ± 0.16	2.43 ± 0.17	2.46 ± 0.17	2.49 ± 0.17	2.52 ± 0.17	2.55 ± 0.17
C#CCCCC [1-hexyne] + CCCCCC[N+]1(C)CCCCC1.O=S(=O)([N-]S(=O)(=O)C(F)(F)F)C(F)(F)F	1.85 ± 0.12	1.88 ± 0.13	1.92 ± 0.13	1.93 ± 0.13	1.96 ± 0.13	1.98 ± 0.13
O [water] + CCCCCC[N+]1(C)CCCCC1.O=S(=O)([N-]S(=O)(=O)C(F)(F)F)C(F)(F)F	5.31 ± 0.36	4.46 ± 0.3	3.81 ± 0.26	3.26 ± 0.22	2.8 ± 0.19	2.45 ± 0.17
C1=CCCCC1 [cyclohexene] + CCCCCC[N+]1(C)CCCCC1.O=S(=O)([N-]S(=O)(=O)C(F)(F)F)C(F)(F)F	3.07 ± 0.21	3 ± 0.2	2.94 ± 0.2	2.88 ± 0.2	2.81 ± 0.19	2.75 ± 0.19
CCO [ethanol] + CCCCCC[N+]1(C)CCCCC1.O=S(=O)([N-]S(=O)(=O)C(F)(F)F)C(F)(F)F	1.81 ± 0.12	1.63 ± 0.11	1.49 ± 0.1	1.37 ± 0.09	1.27 ± 0.08	1.18 ± 0.08
C=CCCCC [hex-1-ene] + CCCCC[N+]1(C)CCCCC1.O=S(=O)([N-]S(=O)(=O)C(F)(F)F)C(F)(F)F	5.52 ± 0.38	5.31 ± 0.36	5.13 ± 0.35	5 ± 0.34	4.92 ± 0.34	4.8 ± 0.33
